Patent US20040028616A1, “Inhibition of lung metastases by aerosol delivery of p53 gene and anti-cancer compounds” (priority 2002, published 2004)

Columns and labels:
B16-F10 lung metastases [1] = assay: Survival of B16-F10 challenged mice with PEI-p53/9NC-DLPC aerosol treatment; format: in vivo, C57BL/6 mice; settings: aerosol treatment from day 11 for two weeks; n=10 mice per group
Protocol: C57BL/6 mice (n=10 mice per group) were injected via the tail vein with 25,000 B16-F10 cells on day 0 and the tumor was allowed to establish until day 10. The mice were then left untreated; or exposed to PEI-p53 aerosol complexes, to 9-nitrocamptothecin alone or to a sequential combination of p53 and 9-nitrocamptothecin, or 9-nitrocamptothecin and Neobam combination starting day 11 after tumor cell injection. Neobam was used as a negative control. The dosage was twice a week for drug or gene alone; and in combination once a week for gene and, twice a week for drug therapy. The mice were treated for two weeks, and then monitored over time for their survival.

B16-F10 lung metastases [2] = assay: In vivo effect of aerosol PEI-p53 and 9NC-DLPC on established B16-F10 lung metastases; parameters: species or system C57BL/6 mice; settings: lower dose, agent alone
Protocol: C57BL/6 mice (7-8 weeks old, Harlan Sprague Dawley, Houston, Tex.) were injected via the tail vein with 25,000 B16-F10 cells on day 0. […] Animals in the single agent therapy group were administered p53 one time weekly or 9-nitrocamptothecin twice weekly.
The dosage for treatment was 2 mg plasmid/10 ml of aerosolized solution at a PEI:DNA (N:P) ratio of 10:1 for DNA, and 5 mg 9-nitrocamptothecin at a concentration of 0.5 mg/ml at a 9 nitrocamptothecin:dilauroylphosphatidylcholine weight ratio of 1:50. Aerosol delivery of drugs and genes was performed using 5% CO2-in-air for increased pulmonary deposition. On day 25-post tumor inoculation, the mice were sacrificed, lungs were fixed and the tumor index was calculated.
Tumor index was calculated by the formula: Tumor index=lung weights×average grade for the group. […] The growth of tumor contiguous to the lung was considered as a part of the lung for weighing the lungs. Values are mean+SD (n=10 mice per group).

B16-F10 cells = assay: In vitro effect of p53 gene and 9NC on B16-F10 cell proliferation (hematocytometer cell count); format: cell-based; settings: drug >0.5 mg/ml; data not shown
Protocol: B16-F10 cells grown in tissue culture plates (20,000 cells/well in a 48 well plate; […] cells/well in a 12 well plate) are transfected with PEI-DNA complexes (1 μg/ml; p53 or control empty plasmid, Neo) for 24 hours. […] The proliferation of B16-F10 cells 24 hours later was evaluated using the hematocytometer. To count the cells, the cell layer was washed with PBS and then trypsinized with 0.25% trypsin. The Alamar Blue Assay (Trek Diagnostic Systems, Inc) was also performed to test the viability of the cells (data not shown).
Control groups included cells treated with the genes (p53 and Neobam) alone, or with the drug (9-nitrocamptothecin) alone, or with Neobam and 9-nitrocamptothecin in combination. […] The p53 expression levels in parental and p53 treated B16-F10 cells have been reported previously (8).

SMILES: CC[C@@]1(O)C(=O)OCc2c1cc1n(c2=O)Cc2cc3c([N+](=O)[O-])cccc3nc2-1 [9-nitrocamptothecin]
- mean survival time (B16-F10 lung metastases [1]): 29 ± 3 days
- suppression of metastatic growth or increase of survival by single agent (B16-F10 lung metastases [2]): neither the p53 nor the 9-nitrocamptothecin alone is potent enough
- inhibition of B16-F10 as single agent, increased drug concentration (B16-F10 cells): very potent inhibition
